In US20140073760A1, “USE OF AN ANG-(1-7) RECEPTOR AGONIST IN ACUTE LUNG INJURY” (Charite-Universitatsmedizin Berlin, priority 2008, published 2014):
“Also recorded” adds a separate entry of the source. Non-standard residues stand in square brackets, D forms with d. No end group written: not given here.

System: oleic acid induced acute lung injury
Assay: Oleic acid induced acute lung injury (ALI) in anesthetized, ventilated rats
Assay type: in vivo, male Sprague-Dawley rats
Conditions: rat
Method: Experiments were performed in male Sprague-Dawley rats (Charles River Wiga GmbH, Sulzfeld, Germany) with a body weight (bw) of 330-360 g. Animals received care in accordance with the Guide for the Care and Use of Laboratory Animals (Institute of Laboratory Animal Resources, 7th edition 1996). The study was approved by the local animal care and use committee.
Rats were anesthetized by intraperitoneal injection of medetomidine (0.5 mg/kg bw, Domitor®, Dr. E. Graeub AG, Basel, Switzerland), fentanyl (0.05 mg/kg bw, JanssenCilag, Neuss, Germany) and midazolam (5 mg/kg bw, Dormicum®, Roche, Basel, Switzerland) as previously described (17). Following tracheotomy, the trachea was cannulated and ventilation was established (Advanced Animal Respirator, TSE Systems GmbH, Bad Homburg, Germany) with a tidal volume of 6 ml/kg bw at 80 breaths/min. Catheters (internal diameter 0.58 mm; Sims Portex Ltd., Hythe, United Kingdom) were introduced into the left carotid artery and the right internal jugular vein for monitoring of arterial blood pressure (AP), fluid replacement and drug delivery as previously described (18). An ultrasonic flowprobe (Transonic®, Transonic Systems Inc., Ithaca, N.Y.) was placed around the ascending aorta distal to the branching of the coronary arteries for continuous monitoring of cardiac output (CO). After median thoracotomy, a catheter was introduced via the right ventricle into the pulmonary artery for measurement of pulmonary artery pressure (PAP). AP, PAP and CO were continuously recorded by the software package DasyLab 32 (DasyLab, Moenchengladbach, Germany). Pulmonary vascular resistance (PVR) was calculated as arteriovenous pressure differences over flow under the assumption of a constant left atrial pressure of 2 mmHg.
In group 2 (OA), ALI was induced by intravenous infusion of 0.2 mg/kg oleic acid (Sigma, Munich, Germany) over 30 min in the absence of any treatment. In group 3 (OA+Ang-(1-7)), ALI was induced as in group II, and infusion of Ang-(1-7) at 5 pmol/kg per min was initiated immediately after ALI induction. In group 4 (OA+AVE0991), ALI was induced as in group II, and infusion of AVE0991 at 500 pmol/kg per min was initiated immediately after ALI induction. In two additional groups of n=6 each, in which only myeloperoxidase (MPO) activity was measured, infusion of the Ang-(1-7) receptor blocker A779 (10 pmol/kg per min) was initiated either alone (group 5) or in combination with Ang-(1-7) (5 pmol/kg per min; group 6) immediately after induction of ALI.
After surgical preparation and hemodynamic stabilization over at least 15 min, baseline hemodynamics were recorded and arterial blood gases analyzed (RapidLab 348; Chiron Diagnostics GmbH, Fernwald, Germany). Removed blood volume was replaced by hydroxyethyl starch (6% hydroxyethyl starch 200/0.6; Fresenius, Bad Homburg, Germany). Immediately after baseline recordings, 0.2 mg/kg oleic acid was infused intravenously over 30 min in groups II-VI or an equal volume of 0.9% NaCl in group I. In all groups, measurements were repeated in 60 min intervals up to a total of 4 h at which time animals were sacrificed by exsanguination. After in situ ligation of the right main bronchus, lungs were excised and processed for determination of wet-to-dry weight ratio and myeloperoxidase (MPO) activity as described below.
For determination of lung water content, wet-to-dry weight ratio was measured by use of the microwave drying technique (18). Recruitment of inflammatory cells was analyzed by measurements of MPO activity in lung homogenates as previously described (19). In brief, MPO activity was determined by a 3,3′-5,5′-tetramethylbenzidine (TMB)-based photometric assay, compared to appropriate standard curves, and expressed as units per gram lung tissue (U/g).
All data are presented as mean±SEM. Data were tested by Kruskal-Wallis test for differences between groups. Statistical significance was assumed at P<0.05.

Row | Substance | OA-induced change in lung wet-to-dry weight ratio (Ang-(1-7) infusion 5 pmol/kg per min after OA, 4 h, FIG. 1(B)) | systemic arterial pressure (systemic hypotension in OA-infused rats) (Ang-(1-7) infusion 5 pmol/kg per min after OA, 4 h, FIG. 1(C)) | OA-induced change in pulmonary vascular resistance (Ang-(1-7) infusion 5 pmol/kg per min after OA, 4 h, FIG. 1(D)) | OA-induced change in lung MPO activity (Ang-(1-7) infusion 5 pmol/kg per min after OA, 4 h, lung homogenates, FIG. 1(A)) | development of OA-induced ALI (OA 0.2 mg/kg i.v. over 30 min, Ang-(1-7) infusion 5 pmol/kg per min started immediately after ALI induction, 4 h) | lung oedema and inflammation in oleic-acid induced ALI (infusion after OA, conclusion of the study) | rescue effect of Ang-(1-7) infusion on OA-induced ALI (lung MPO activity) (A779 10 pmol/kg per min in combination with Ang-(1-7) 5 pmol/kg per min after OA, only MPO measured) | OA-induced ALI (lung MPO activity) (A779 infusion 10 pmol/kg per min alone after OA, only MPO measured)
1 | Asp^1-Arg^2-Val^3-Tyr^4-Ile^5-His^6-Pro^7 [Ang-(1-7)] | abrogated OA-induced changes | attenuated systemic hypotension | abrogated OA-induced changes | abrogated OA-induced changes | completely prevented the development of OA-induced ALI | completely prevents lung oedema and inflammation |  | 
2 | Asp^1-Arg^2-Val^3-Tyr^4-Ile^5-His^6-D-Ala^7 (DRVYIH[dA]) [A779, reference compound] |  |  |  |  |  |  | blocks the rescue effect of Ang-(1-7) infusion; also recorded: lost after Mas blockade | aggravates OA-induced ALI; also recorded: aggravated after Mas blockade
